The values that follow come from patent US9980943B2, “Methods of treating muscular dystrophy” (BOARD OF REGENTS OF THE NEVADA SYSTEM OF HIGHER EDUCATION, …, priority 2013, dated 2018).

Holding throughout (format): cell-based, mouse
The test system of assay [1] is α7 integrin (LacZ reporter in α7βgal+/− myoblasts). In words: Myoblast α7+/LacZ integrin FDG assay (Burkin assay in myoblasts, 96-well). To be noted: 96-well; for Burkin Assay in Myoblasts, signal relative to DMSO: α7+/LacZ myoblasts; for Burkin Assay in Myoblasts, value relative to DMSO: SU9516 analogs, N=3-6.
Assay [2] deals with α7 integrin (LacZ reporter in α7+/LacZ myotubes). In words: Myotube α7 integrin FDG assay (Burkin assay in myotubes, 96-well). Conditions: for Burkin Assay in Myotubes, value relative to DMSO: SU9516 analogs, 96-well, N=3-6.
Assay [3] concerns β-galactosidase in CMV-LacZ C2C12 myoblasts. In words: CMV-LacZ secondary screen in C2C12 myoblasts (β-Gal stabilizing assay). To be noted: for CMV-LACZ in Myoblasts (β-galactosidase activity relative to DMSO): CMV-LacZ C2C12 myoblasts; for CMV-LACZ in Myoblasts, value relative to DMSO: SU9516 analogs, C2C12 CMV-LacZ, N=2. Put shortly:
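Dose-response runs at 0.5–40 μM (0.5, 1, 5, 10, 20, 40 μM; N=2 per point) used a clonal C2C12 line carrying CMV-LacZ. Cells were assayed as myoblasts or as differentiated myotubes, and β-galactosidase levels were read with the FDG fluorogenic substrate.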

Assay [4] has as its system β-galactosidase in CMV-LacZ C2C12 myotubes. Briefly: CMV-LacZ secondary screen in C2C12 myotubes (β-Gal stabilizing assay). Conditions: for CMV-LACZ in Myotubes, signal relative to DMSO: C2C12 CMV-LacZ myotubes, fold relative to DMSO; for CMV-LACZ in Myotubes, value relative to DMSO: SU9516 analogs, C2C12 CMV-LacZ, N=2. An outline of the steps: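 Stable CMV-LacZ C2C12 clone; six-point curve 0.5–40 μM; duplicates.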

`O=C(Nc1cc(-c2nc3ccccc3s2)ccc1Cl)c1ccc2c(c1)OCO2` [MLS000560266-01]: the “Burkin Assay in Myoblasts, signal relative to DMSO” value in assay [1] (0.5 uM) is given as 0.953; in assay [1] (1 uM), 0.8556; in assay [1] (5 uM), 1.026; in assay [1] (10 uM) it was 1.13; in assay [1] (20 uM), 0.8321; in assay [1] (40 uM) it was 0.5589. The “Burkin Assay in Myotubes, α7 integrin LacZ reporter signal relative to DMSO” value amounted to 0.9891 in assay [2] (0.5 uM); 0.8824 in assay [2] (1 uM); 1.037 in assay [2] (5 uM); 1.185 in assay [2] (10 uM); 0.6706 in assay [2] (20 uM); 0.6059 in assay [2] (40 uM). The “CMV-LACZ in Myoblasts (β-galactosidase activity relative to DMSO)” value was found to be 0.9030 in assay [3] (0.5 uM); 0.8123 in assay [3] (1 uM); 0.9405 in assay [3] (5 uM); 0.9991 in assay [3] (10 uM); 1.1095 in assay [3] (20 uM); 1.0484 in assay [3] (40 uM). In addition, the “CMV-LACZ in Myotubes, signal relative to DMSO” value was 0.9724 in assay [4] (0.5 uM); 1.0000 in assay [4] (1 uM); 1.0253 in assay [4] (5 uM); 1.0224 in assay [4] (10 uM); 1.0520 in assay [4] (20 uM); 0.9470 in assay [4] (40 uM).
`Cc1nnc(SCC(=O)c2ccc(Br)cc2)s1` [MLS000420298-01]: the “Burkin Assay in Myoblasts, signal relative to DMSO” value in assay [1] (0.5 uM) came to 1.379; in assay [1] (1 uM) it was 1.243; in assay [1] (5 uM), 1.083; in assay [1] (10 uM), 1.1; in assay [1] (20 uM), 1.111; in assay [1] (40 uM) it was 0.9235. The “Burkin Assay in Myotubes, α7 integrin LacZ reporter signal relative to DMSO” value in assay [2] (0.5 uM) is 0.9538; in assay [2] (1 uM) it was 1.0464; in assay [2] (5 uM), 0.9453; in assay [2] (10 uM) it was 0.9005; in assay [2] (20 uM), 0.91; in assay [2] (40 uM) it was 1.006. In addition, the “CMV-LACZ in Myoblasts (β-galactosidase activity relative to DMSO)” value in assay [3] (0.5 uM) amounted to 1.2808; in assay [3] (1 uM), 0.9383; in assay [3] (5 uM), 0.8414; in assay [3] (10 uM), 1.0482; in assay [3] (20 uM), 0.9807; in assay [3] (40 uM), 1.1930. In addition, the “CMV-LACZ in Myotubes, signal relative to DMSO” value in assay [4] (0.5 uM) worked out at 0.9573; in assay [4] (1 uM), 0.8527; in assay [4] (5 uM) it was 1.0338; in assay [4] (10 uM), 1.2388; in assay [4] (20 uM), 1.3660; in assay [4] (40 uM), 1.1250.
Consider `O=Nc1c(-c2c(O)[nH]c3ccccc23)[nH]c2ccccc12` [NCGC00015545-02], for which the “Burkin Assay in Myoblasts, value relative to DMSO” value in assay [1] (0.5 uM) was found to be 1.175; in assay [1] (1 uM) it was 1.325; in assay [1] (5 uM), 0.596; in assay [1] (10 uM) it was 0.319; in assay [1] (20 uM), 0.3086; in assay [1] (40 uM) it was 0.1824. For the same compound, the “Burkin Assay in Myotubes, value relative to DMSO” value is reported as 0.913 in assay [2] (0.5 uM); 0.9118 in assay [2] (1 uM); 0.6921 in assay [2] (5 uM); 0.5516 in assay [2] (10 uM); 0.4959 in assay [2] (20 uM); 0.3519 in assay [2] (40 uM). Also, the “CMV-LACZ in Myoblasts, value relative to DMSO” value stood at 1.0179 in assay [3] (0.5 uM); 0.9440 in assay [3] (5 uM); 0.8475 in assay [3] (10 uM); 0.2907 in assay [3] (20 uM); 0.2480 in assay [3] (40 uM). Moreover, the “CMV-LACZ in Myotubes, value relative to DMSO” value in assay [4] (0.5 uM) is 0.8627; in assay [4] (1 uM), 0.9536; in assay [4] (5 uM), 0.7586; in assay [4] (10 uM) it was 0.5058; in assay [4] (20 uM) it was 0.5490; in assay [4] (40 uM), 0.4770.
Take `C#CC1(O)CCC2C3CCC4=C/C(=N/OCC(=O)NCC(=O)NC(C(=O)O)C(C)C)CC[C@]4(C)C3CC[C@@]21C` (some centres unmarked) [MLS001163859-01]: the “Burkin Assay in Myoblasts, signal relative to DMSO” value in assay [1] (0.5 uM) is 0.9786; in assay [1] (1 uM), 1.09; in assay [1] (5 uM), 1.055; in assay [1] (10 uM), 1.024; in assay [1] (20 uM) it was 0.9208; in assay [1] (40 uM), 0.928. For the same compound, the “Burkin Assay in Myotubes, α7 integrin LacZ reporter signal relative to DMSO” value in assay [2] (0.5 uM) was determined as 1.132; in assay [2] (1 uM), 1.281; in assay [2] (5 uM), 1.385; in assay [2] (10 uM) it was 1.249; in assay [2] (20 uM), 1.118; in assay [2] (40 uM), 1.058. In addition, the “CMV-LACZ in Myoblasts (β-galactosidase activity relative to DMSO)” value in assay [3] (0.5 uM) worked out at 1.1113; in assay [3] (1 uM), 1.1684; in assay [3] (5 uM) it was 1.2009; in assay [3] (10 uM) it was 1.1812; in assay [3] (20 uM), 0.7593; in assay [3] (40 uM), 0.8104. The “CMV-LACZ in Myotubes, signal relative to DMSO” value in assay [4] (0.5 uM) stood at 0.8756; in assay [4] (1 uM), 1.1326; in assay [4] (5 uM), 1.0856; in assay [4] (10 uM), 1.1727; in assay [4] (20 uM), 1.0965; in assay [4] (40 uM) it was 1.2482.
On to `O=C(O)C(Cc1ccc(O)cc1)N1C(=O)c2ccccc2C1=O` (centres unmarked) [MLS001165394-01], for which the “Burkin Assay in Myoblasts, signal relative to DMSO” value in assay [1] (0.5 uM) is listed as 1.149; in assay [1] (1 uM) it was 1.201; in assay [1] (5 uM), 1.159; in assay [1] (10 uM), 0.951; in assay [1] (20 uM) it was 1.035; in assay [1] (40 uM), 1.007. The “Burkin Assay in Myotubes, α7 integrin LacZ reporter signal relative to DMSO” value in assay [2] (0.5 uM) turned out to be 1.068; in assay [2] (1 uM), 1.135; in assay [2] (5 uM), 1.239; in assay [2] (10 uM) it was 0.9854; in assay [2] (20 uM), 1.188; in assay [2] (40 uM), 1.034. In addition, the “CMV-LACZ in Myoblasts (β-galactosidase activity relative to DMSO)” value in assay [3] (0.5 uM) was 1.0655; in assay [3] (1 uM), 1.0015; in assay [3] (5 uM) it was 1.0941; in assay [3] (10 uM) it was 0.9792; in assay [3] (20 uM), 0.8663; in assay [3] (40 uM), 0.9570. The “CMV-LACZ in Myotubes, signal relative to DMSO” value in assay [4] (0.5 uM) is recorded as 0.9232; in assay [4] (1 uM), 1.1558; in assay [4] (5 uM), 0.9589; in assay [4] (10 uM), 0.9045; in assay [4] (20 uM), 1.0344; in assay [4] (40 uM), 0.9544.
